Read-outs that look alike come from different tables or passages of the source.
Columns and labels:
[1] = 30 min, 20° C. (Sporox); cited from earlier work
Mycobacterium terrae = experiment: AOAC tuberculocidal test, kill time; type: cell-based; conditions: for Kill Time M. terrae: tests 7.1-7.4, 1% of the quat, 50° C.
From the text: These standards are based on the known or possible risk of contamination of a particular medical device by a particular micro-organism, the pathogenic nature of the organism and other principles in infection control. […] The test panels and criteria are different for “low”, “intermediate” or “high-level disinfection”. These terms are herein used in accordance with current Food and Drug Administration (“FDA”) criteria for levels of disinfection which are detailed in Premarket Notification [510(k)] Submissions for Liquid Chemical Sterilants and High Level Disinfectants FDA 1997: “A germicide that inactivates all microbial pathogens except large number of bacterial endospores when used according to labelling”. In brief, the FDA regulatory requirement for high level disinfectants includes as the most challenging test a 100% kill of Mycobacterium tuberculosis var. bovis (or a specific strain of a suitable surrogate, such as Mycobacterium terrae) in 400 p.p.m. hard water in the presence of 2% horse serum in a quantitative tuberculocidal test.
In the following tables unless otherwise specified references to “kill time” mean the time required to achieve complete kill as defined in the relevant AOAC test (more particularly identified in annexure 1). “No kill” means less than 2 log reduction from the initial population. Unless otherwise specified “QUAT” is benzalkonium chloride, specifically Gardiquat NC-50 (Albright & Wilson). Test points for vegetative bacteria (M. terrae) were 2, 5, 10, 20 and 60 mins. Test points for spores were 0.5, 1, 2, 4, 16, 24, 48 hours. The last column in each table indicates whether the tested combination satisfies the FDA requirement for high level disinfection (“HLD”) or fails to do so (“F”).
AOAC tests for determination of High level Disinfection as defined in current FDA criteria (detailed in “Premarket Notification [510(k)] Submissions for Liquid Chemical Sterilants and High Level Disinfectants FDA 1993”.):
AOAC Tuberculocidal Activity of Disinfectants
AOAC Ref No 965.12, AOAC Official Methods of Analysis (1995)

[2] = system: Mycobacterium terrae, B. subtilis, C. sporogens; design: key: satisfies the FDA requirement for high level disinfection (“HLD”); fails to do so (“F”)
B. subtilis spores = experiment: AOAC sporicidal test, kill time; type: cell-based; conditions: 50° C.
C. sporogens spores = experiment: AOAC sporicidal test, kill time; type: cell-based; conditions: 50° C.
[3] = tests 7.1-7.4, 1% of the quat, 50° C.

Row | Compound | Kill Time B. subtilis (B. subtilis spores; tests 7.2-7.4, 1% of the quat) [h] | Kill Time C. sporogens (C. sporogens spores; tests 7.2-7.4, 1% of the quat) [h] | Kill Time M. terrae (Mycobacterium terrae) [min] | HLD or F [2, 3] | other results
1 | OO [peroxide, hydrogen peroxide] | – | – | – | – | minimum effective concentration for high-level disinfection [1]: 6.0%
2 | CC(C)(C)CC(C)(C)c1ccc(OCCOCC[N+](C)(C)Cc2ccccc2)cc1 [benzethonium chloride, reference compound] | – | – | – | – | effectiveness against Mycobacterium (Mycobacterium terrae; 0.25%, temperatures above 60° C., with ultrasound): not effective; HLD or F ([2]; test 1.3, 0.25% benzethonium chloride, 0.25% Triton X-100, 5% isopropanol, 62° C. + ultrasound 20 min/hr): F
3 | N-Alkyl Dimethyl Ammonium Chloride [Quat(3)] | <2 | <2 | <10 | HLD | –
4 | CCCCCCCCCC[N+](C)(C)CCCCCCCCCC.[Cl-] [Quat(1), Didecyl Dimethyl Ammonium Chloride] | – | – | <10 | HLD | Kill Time B. subtilis (B. subtilis spores; test 7.1, 1% Quat(1)): <2 h; Kill Time C. sporogens (C. sporogens spores; test 7.1, 1% Quat(1)): <2 h
5 | CCCCCCCC[N+](C)(C)CCCCCCCC.[Cl-] [Quat(2), Dioctyl Dimethyl Ammonium Chloride] | <2 | <2 | <10 | HLD | –
